Source: US20260226073A1 (AURIGENE ONCOLOGY LIMITED, priority 2023, published 2026)

Key:
[1] = target: T1, human recombinant CBL-b (human Biotin CBL-b recombinant protein a.a. 39-426) (Homo sapiens, UniProt Q13191); assay: Biochemical assay for CBL-b inhibition (ligand displacement TR-FRET); type: binding; conditions: 50 nM CBL-b, 0.3 μM Bodipy FL-Probe, read-out: IC50 (CBL-b inhibition, group)
T1 construct: human Biotin CBL-b recombinant protein a.a; 39-426; Biotin (biotinylated); made in house
Method in brief: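 Ligand-displacement TR-FRET: 0.3 μM Bodipy FL probe competes with compound for 50 nM biotin-CBL-b (aa 39-426) after a 60 min RT compound pre-incubation; terbium-streptavidin detection, 60 min each step. Dose-response sigmoidal fitting gave IC50 and % maximum inhibition.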

[2] = system: human PBMCs stimulated with anti-CD3/CD28 Dynabeads; assay: Human PBMC cytokine release assay (IL-2 by ELISA); type: cell-based; conditions: Dynabeads CD3/CD28 48 hours, IL-2 ELISA, fold change over baseline, read-out: EC50 (human PBMC cytokine release, group)
Experimental: Peripheral blood mononuclear cells (PBMC) were isolated from healthy human donor using Histopaque (Sigma). The Cbl-inhibitor was added to 1×10^5 cells per well and the plate was incubated for 30 minutes at 37° C. in 5% CO2 at different concentrations with a final DMSO concentration of <0.5%. Following incubation with the Cbl-b inhibitor, human PBMCs were stimulated with Dynabeads™ Human T-Activator CD3/CD28 (Thermo Fisher Scientific) for 48 hours. Cell free supernatant were collected after end of incubation and were analyzed for cytokine secretion, including IL-2 by ELISA (R&D Systems). Readouts were reported as fold change over baseline. Here, baseline was the measurement obtained from human PBMCs stimulated with Dynabeads™ Human T-Activator CD3/CD28, where the cells were not incubated with a Cbl-b inhibitor.

[3] = system: NFAT signaling pathway in Jurkat NFAT reporter cells; assay: Jurkat NFAT reporter assay; type: cell-based; conditions: Homo sapiens, 30 min with compound, then soluble anti-human CD3/CD28 antibody for 6 hours, luciferase readout, read-out: EC50 (Group)
Method in brief: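 Results are expressed as fold change relative to stimulated, inhibitor-free cells. Stimulation was 6 h with soluble anti-human CD3/CD28 antibody after a 30-min exposure of 1×10^5 NFAT-RE luciferase Jurkat reporter cells per well to the Cbl-b inhibitor; signal read by Bio-Glo bioluminescence.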

T1 sequence (Q13191 39-426): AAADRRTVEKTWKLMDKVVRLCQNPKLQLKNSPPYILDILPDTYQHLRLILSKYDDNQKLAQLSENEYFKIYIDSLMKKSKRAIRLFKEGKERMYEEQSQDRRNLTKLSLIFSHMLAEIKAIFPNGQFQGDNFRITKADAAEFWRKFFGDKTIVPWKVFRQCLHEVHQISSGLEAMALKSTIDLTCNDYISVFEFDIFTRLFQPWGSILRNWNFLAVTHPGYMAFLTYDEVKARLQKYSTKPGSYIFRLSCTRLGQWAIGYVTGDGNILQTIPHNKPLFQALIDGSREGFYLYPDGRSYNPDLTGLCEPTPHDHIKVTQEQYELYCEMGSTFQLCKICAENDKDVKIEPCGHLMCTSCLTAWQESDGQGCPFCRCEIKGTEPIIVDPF

C[C@H]1CCCN(Cc2cc(N3Cc4ccc(C5(Cc6nncn6C)COC5)cc4C3=O)cc(C(F)(F)F)c2)C1 [Compound 1, (S)-6-(3-((4-Methyl-4H-1,2,4-triazol-3-yl)methyl)oxetan-3-yl)-2-(3-((3-methylpiperidin-1-yl)methyl)-5-(trifluoromethyl)phenyl)isoindolin-1-one] was tested, and the IC50 [1] was 80 to 300 nM, the EC50 [2] was < 5000 nM and the EC50 [3] was < 300 nM.

In the case of C[C@H]1CCCN(Cc2cc(N3Cc4ccc(C5(Cc6nncn6C)COC5)cc4C3=O)nc(C(F)(F)F)c2)C1 [Compound 2], the IC50 [1] is reported as < 80 nM, the EC50 [2] is reported as < 5000 nM and the EC50 [3] is reported as < 300 nM.

For Cc1cc(CN2CCC[C@H](C)C2)cc(N2Cc3ccc(C4(Cc5nncn5C)COC4)cc3C2=O)c1 [Compound 4, (S)-6-(3-((4-Methyl-4H-1,2,4-triazol-3-yl)methyl)oxetan-3-yl)-2-(3-methyl-5-((3-methylpiperidin-1-yl)methyl)phenyl)isoindolin-1-one], the IC50 [1] was < 80 nM, the EC50 [2] was < 5000 nM and the EC50 [3] was < 300 nM.

With C[C@H]1CCCN(Cc2cc(Cl)cc(N3Cc4ccc(C5(Cc6nncn6C)COC5)cc4C3=O)c2)C1 [Compound 6, (S)-2-(3-Chloro-5-((3-methylpiperidin-1-yl)methyl)phenyl)-6-(3-((4-methyl-4H-1,2,4-triazol-3-yl)methyl)oxetan-3-yl)isoindolin-1-one] the IC50 [1] was < 80 nM, the EC50 [2] was < 5000 nM and the EC50 [3] was < 300 nM.

CCc1cc(CN2CCC[C@H](C)C2)cc(N2Cc3ccc(C4(Cc5nncn5C)COC4)cc3C2=O)c1 [Compound 11, (S)-2-(3-Ethyl-5-((3-methylpiperidin-1-yl)methyl)phenyl)-6-(3-((4-methyl-4H-1,2,4-triazol-3-yl)methyl)oxetan-3-yl)isoindolin-1-one] was tested, and the IC50 [1] was 80 to 300 nM, the EC50 [2] was < 5000 nM and the EC50 [3] was 300 to 1000 nM.

For Cc1cc(C(C)N2CCC[C@H](C)C2)cc(N2Cc3ccc(C4(Cc5nncn5C)COC4)cc3C2=O)c1 (stereo partly drawn) [Compound 12, 6-(3-((4-Methyl-4H-1,2,4-triazol-3-yl)methyl)oxetan-3-yl)-2-(3-methyl-5-(1-((S)-3-methylpiperidin-1-yl)ethyl)phenyl)isoindolin-1-one], the IC50 [1] was < 80 nM, the EC50 [2] was < 5000 nM and the EC50 [3] was 300 to 1000 nM.

With Cn1cnnc1CC1(c2ccc3c(c2)C(=O)N(c2cc(CNCCC(F)(F)F)cc(C(F)(F)F)n2)C3)COC1 [Compound 25, 6-(3-((4-Methyl-4H-1,2,4-triazol-3-yl)methyl)oxetan-3-yl)-2-(6-(trifluoro-methyl)-4-(((3,3,3-trifluoropropyl)amino)methyl)pyridin-2-yl)isoindolin-1-one] the IC50 [1] was < 80 nM, the EC50 [2] was < 5000 nM and the EC50 [3] was 300 to 1000 nM.

For Cn1cnnc1CC1(c2ccc3c(c2)C(=O)N(c2cc(CN4CC5CCCC5C4)cc(C(F)(F)F)n2)C3)COC1 (stereo not drawn) [Compound 35, 2-(4-((Hexahydrocyclopenta[c]pyrrol-2(1H)-yl)methyl)-6-(trifluoromethyl)pyri-din-2-yl)-6-(3-((4-methyl-4H-1,2,4-triazol-3-yl)methyl)oxetan-3-yl)isoindolin-1-one], the IC50 [1] was 80 to 300 nM, the EC50 [2] was < 5000 nM and the EC50 [3] was 300 to 1000 nM.

In the case of C[C@@H]1C[C@H](C)CN(Cc2cc(N3Cc4ccc(C5(Cc6nncn6C)COC5)cc4C3=O)nc(C(F)(F)F)c2)C1 [Compound 39, 2-(4-(((3S,5R)-3,5-Dimethylpiperidin-1-yl)methyl)-6-(trifluoromethyl)pyridin-2-yl)-6-(3-((4-methyl-4H-1,2,4-triazol-3-yl)methyl)oxetan-3-yl)isoindolin-1-one], the IC50 [1] is reported as < 80 nM, the EC50 [2] is reported as < 5000 nM and the EC50 [3] is reported as < 300 nM.

For C[C@H]1CCCN(Cc2cc(Cl)nc(N3Cc4ccc(C5(Cc6nncn6C)COC5)cc4C3=O)c2)C1 [Compound 40, (S)-2-(6-Chloro-4-((3-methylpiperidin-1-yl)methyl)pyridin-2-yl)-6-(3-((4-methyl-4H-1,2,4-triazol-3-yl)methyl)oxetan-3-yl)isoindolin-1-one], the IC50 [1] was < 80 nM, the EC50 [2] was < 5000 nM and the EC50 [3] was < 300 nM.

With C[C@@H]1C[C@H](C)CN(Cc2cc(Cl)nc(N3Cc4ccc(C5(Cc6nncn6C)COC5)cc4C3=O)c2)C1 [Compound 52, 2-(6-Chloro-4-(((3S,5R)-3,5-dimethylpiperidin-1-yl)methyl)pyridin-2-yl)-6-(3-((4-methyl-4H-1,2,4-triazol-3-yl)methyl)oxetan-3-yl)isoindolin-1-one] the IC50 [1] was < 80 nM, the EC50 [2] was < 5000 nM and the EC50 [3] was < 300 nM.

Cc1nc(CN2CCC[C@H](C)C2)cc(N2Cc3ccc(C4(Cc5nncn5C)COC4)cc3C2=O)n1 [Compound 53, (S)-6-(3-((4-Methyl-4H-1,2,4-triazol-3-yl)methyl)oxetan-3-yl)-2-(2-methyl-6-((3-methylpiperidin-1-yl)methyl)pyrimidin-4-yl)isoindolin-1-one] was tested, and the IC50 [1] was < 80 nM, the EC50 [2] was < 5000 nM and the EC50 [3] was 300 to 1000 nM.

With Cc1cc(CN2C[C@H](C)C[C@H](C)C2)cc(N2Cc3ccc(C4(Cc5nncn5C)COC4)cc3C2=O)c1 [Compound 56, 2-(3-(((3S,5R)-3,5-Dimethylpiperidin-1-yl)methyl)-5-methylphenyl)-6-(3-((4-methyl-4H-1,2,4-triazol-3-yl)methyl)oxetan-3-yl)isoindolin-1-one] the IC50 [1] was 80 to 300 nM, the EC50 [2] was < 5000 nM and the EC50 [3] was < 300 nM.

With Cn1cnnc1CC1(c2ccc3c(c2)C(=O)N(c2cc(CNCC4CC4)cc(Cl)n2)C3)COC1 [Compound 57, 2-(6-Chloro-4-(((cyclopropylmethyl)amino)methyl)pyridin-2-yl)-6-(3-((4-methyl-4H-1,2,4-triazol-3-yl)methyl)oxetan-3-yl)isoindolin-1-one] the IC50 [1] was < 80 nM, the EC50 [2] was < 5000 nM and the EC50 [3] was < 300 nM.

In the case of Cc1cc(CN2C[C@@H](C)C[C@H](C)C2)cc(N2Cc3ccc(C4(Cc5nncn5C)COC4)cc3C2=O)c1 [Compound 59, 2-(3-(((3S,5S)-3,5-Dimethylpiperidin-1-yl)methyl)-5-methylphenyl)-6-(3-((4-methyl-4H-1,2,4-triazol-3-yl)methyl)oxetan-3-yl)isoindolin-1-one], the IC50 [1] is reported as 80 to 300 nM, the EC50 [2] is reported as < 5000 nM and the EC50 [3] is reported as 300 to 1000 nM.

With Cc1cc(CN2C[C@H](C)C[C@H](C)C2)cc(N2Cc3ccc(C4(Cc5nncn5C)COC4)cc3C2=O)n1 [Compound 78, 2-(4-(((3S,5R)-3,5-Dimethylpiperidin-1-yl)methyl)-6-methylpyridin-2-yl)-6-(3-((4-methyl-4H-1,2,4-triazol-3-yl)methyl)oxetan-3-yl)isoindolin-1-one] the IC50 [1] was < 80 nM, the EC50 [2] was < 5000 nM and the EC50 [3] was < 300 nM.

Cn1cnnc1CC1(c2ccc3c(c2)C(=O)N(c2cc(CNCC4CC4)cc(C(F)(F)F)n2)C3)COC1 [Compound 80, 2-(4-(((Cyclopropylmethyl)amino)methyl)-6-(trifluoromethyl)pyridin-2-yl)-6-(3-((4-methyl-4H-1,2,4-triazol-3-yl)methyl)oxetan-3-yl)isoindolin-1-one] was tested, and the IC50 [1] was < 80 nM, the EC50 [2] was < 5000 nM and the EC50 [3] was < 300 nM.
